# Read-outs that look alike come from different tables or passages of the source.
# Key:
# [1] = Lipophilicity, n-octanol/PBS distribution coefficient logD7.4; type: physicochemical; details: 177Lu-labeled peptide; n-octanol/PBS (1/1), n ≥ 5
# Method: For determination of lipophilicity, the respective ^177Lu-Labeled peptide precursor (~ 1 MBq, 10 µL in 0.04 M HCl) was added to a solution of n-octanol/PBS (1/1, v/v, 1 mL) and vigourously mixed for 3 min at room temperature (n ≥ 5). Afterwards both phases were seperated using a Biofuge 15 centrifuge (Heraus Sepatech GmbH, Osterode, Germany) at 9,000 rpm for 5 min. 200 µL aliquots of both layers were collected separately, measured in a γ-counter (Perkin Elmer, Waltham, MA, USA) and the logD7.4 value was obtained.
# [2] = molecular target: T1, Human serum albumin (HSA) (Homo sapiens, UniProt P02768); test: Human serum albumin binding via high performance affinity chromatography (HPAC); type: in vitro ADME; details: Chiralpak HSA column, n = 1
# T1 construct: purchased Daicel, Tokyo, Japan H13H-2433
# T1 sequence (P02768 25-609): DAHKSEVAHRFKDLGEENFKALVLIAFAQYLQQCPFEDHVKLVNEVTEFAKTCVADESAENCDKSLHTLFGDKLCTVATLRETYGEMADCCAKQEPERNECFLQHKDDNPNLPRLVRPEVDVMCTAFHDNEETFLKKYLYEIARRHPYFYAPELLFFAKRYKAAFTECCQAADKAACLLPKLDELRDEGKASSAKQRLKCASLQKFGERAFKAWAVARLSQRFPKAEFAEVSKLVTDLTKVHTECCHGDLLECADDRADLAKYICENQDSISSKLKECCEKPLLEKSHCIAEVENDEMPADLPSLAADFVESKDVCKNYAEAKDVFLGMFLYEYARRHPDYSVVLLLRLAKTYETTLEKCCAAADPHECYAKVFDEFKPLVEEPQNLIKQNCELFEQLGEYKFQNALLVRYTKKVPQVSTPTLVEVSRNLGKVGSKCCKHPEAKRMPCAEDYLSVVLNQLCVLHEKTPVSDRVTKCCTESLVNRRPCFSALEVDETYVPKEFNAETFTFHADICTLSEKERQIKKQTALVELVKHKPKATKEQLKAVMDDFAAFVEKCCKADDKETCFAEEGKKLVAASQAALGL
# Method: Human serum albumin (HSA) binding was determined via high performance affinity chromatography (HPAC), according to previously published protocols. Human serum albumin interaction was calculated according to the retention time (n = 1) of our compounds on a Chiralpak HSA column in dependence of nine reference compounds with known HSA interaction.
# Human serum albumin binding was determined via high performance affinity chromatography. Therefore, a Chiralpak HSA column (50 × 3 mm, 5 µm, H13H-2433, Daicel, Tokyo, Japan) was used at a constant flow rate of 0.5 ml/min at room temperature. Mobile phase A consisted of a freshly prepared aqueous solution of NH4OAc (pH = 6.9, 50 mM) and mobile phase B of isopropanol. Calibration of the column was performed daily prior to experiments, by determining the retention times of nine reference substances displaying a HSA binding from 13 to 99%. HPLC gradient for all compounds tested was 100% A (0 to 3 min), followed by 80% A (3 to 40 min). All substances tested, were dissolved in a mixture of A/B (0.5 mg/mL, 1:1, v/v). OriginPro 2016G software (Northampton, United States) was used for non-linear regression and data evaluation.
# [3] = Biodistribution at 24 h p.i. in AR42J tumor-bearing CB17-SCID mice; type: in vivo; details: mouse, 100 pmol, 100 pmol; for tissue to tissue ratio at 24 h: both sexes, CB17-SCID, total radioactivity
# Method: (§1) Animal experiments were carried out according to the general animal welfare regulations in Germany (German animal protection act, in the edition of the announcement, dated 18 May 2006, as amended by Article 280 of 19 June 2020, approval no. ROB-55.2–1-2532.Vet_02-18–109 by the General Administration of Upper Bavaria) and the institutional guidelines for the care and use of animals. Therefore, CB17-SCID mice of both genders and aged 2–4 months (Charles River Laboratories International Inc., Sulzfeld, Germany) were used. After arrival at the in-house facilities, mice were allowed to acclimate for a minimum of one week before inoculation of AR42J cells. AR42J cells (6.0 × 10^6 cells per 200 μL) were suspended in a mixture (v/v = 1/1) of nutrient medium and Cultrex® Basement Membrane Matrix Type 3 (Trevigen Inc., Gaithersburg, MD, USA) and inoculated subcutaneously onto the right shoulder of CB17-SCID mice according to a previously reported protocol. Animals were excluded from the study when reaching one of the following endpoints: a weight loss higher than 20%, a tumor size above 1500 mm^3, an ulceration of the tumor, respiratory distress or change of behavior [8]. None of these criteria applied to any animal from the experiment. Neither randomization nor blinding was applied in the allocation of the experiments. Health status of the animals is specific pathogen free according to Federation of European Laboratory Animal Science Associations recommendation.
# (§2) Biodistribution studies (n = 4) and µSPECT/CT imaging (n = 1) at 24 h p.i. were carried out as previously published. For all in vivo experiments, approximately 2–3 MBq (100 pmol) of the respective ^177Lu-labeled peptide were administered.
# (§3) Table S2. Biodistribution data of [^177Lu]Lu-DOTA-rhCCK-70 and [^177Lu]Lu-DOTA-rhCCK-91 in selected organs at 24 h p.i. in AR42J tumor-bearing CB17-SCID mice (100 pmol each). Data are expressed as %ID/g, mean ± SD.
# (§4) Table S3. Tumor-to-background ratios of [^177Lu]Lu-DOTA-rhCCK-70 and [^177Lu]Lu-DOTA-rhCCK-91 in selected organs at 24 h p.i. in AR42J tumor-bearing CB17-SCID mice (100 pmol each). Data are expressed as %ID/g, mean ± SD.
# [4] = system: AR42J tumor-bearing CB17-SCID mice; test: as above; type: in vivo; details: for reduction of kidney accumulation and retention compared to [177Lu]Lu-DOTA-rhCCK-18: p < 0.0001
# Method: as §1, §2, §3, §4
# [5] = tumor/adrenal, n=4, Table S3, read-out: Tumor-to-background ratio, Adrenal
# [6] = tumor/blood, n=4, Table S3, read-out: Tumor-to-background ratio, Blood
# [7] = tumor/bone, n=4, Table S3, read-out: Tumor-to-background ratio, Bone
# [8] = tumor/heart, n=4, Table S3, read-out: Tumor-to-background ratio, Heart
# [9] = tumor/intestine, n=4, Table S3, read-out: Tumor-to-background ratio, Intestine
# [10] = tumor/kidney, n=4, Table S3, read-out: Tumor-to-background ratio, Kidney
# [11] = tumor/liver, n=4, Table S3, read-out: Tumor-to-background ratio, Liver
# [12] = tumor/lung, n=4, Table S3, read-out: Tumor-to-background ratio, Lung
# [13] = tumor/muscle, n=4, Table S3, read-out: Tumor-to-background ratio, Muscle
# [14] = tumor/pancreas, n=4, Table S3, read-out: Tumor-to-background ratio, Pancreas
# [15] = tumor/spleen, n=4, Table S3, read-out: Tumor-to-background ratio, Spleen
# [16] = tumor/stomach, n=4, Table S3, read-out: Tumor-to-background ratio, Stomach
# [17] = adrenal, n=4, mean ± SD, read-out: Biodistribution, Adrenal
# [18] = blood, n=4, mean ± SD, read-out: Biodistribution, Blood
# [19] = bone, n=4, mean ± SD, read-out: Biodistribution, Bone
# [20] = heart, n=4, mean ± SD, read-out: Biodistribution, Heart
# [21] = intestine, n=4, mean ± SD, read-out: Biodistribution, Intestine
# [22] = kidney, n=4, mean ± SD, read-out: Biodistribution, Kidney
# [23] = liver, n=4, mean ± SD, read-out: Biodistribution, Liver
# [24] = lung, n=4, mean ± SD, read-out: Biodistribution, Lung
# [25] = muscle, n=4, mean ± SD, read-out: Biodistribution, Muscle
# [26] = pancreas, n=4, mean ± SD, read-out: Biodistribution, Pancreas
# [27] = spleen, n=4, mean ± SD, read-out: Biodistribution, Spleen
# [28] = stomach, n=4, mean ± SD, read-out: Biodistribution, Stomach
# [29] = tumor (AR42J xenograft), n=4, mean ± SD, read-out: Biodistribution, Tumor (AR42J xenograft)
SMILES,logD [1],HSA binding [2] [%],"tissue to tissue ratio at 24 h [3, 5]","tissue to tissue ratio at 24 h [3, 6]","tissue to tissue ratio at 24 h [3, 7]","tissue to tissue ratio at 24 h [3, 8]","tissue to tissue ratio at 24 h [3, 9]","tissue to tissue ratio at 24 h [3, 10]","tissue to tissue ratio at 24 h [3, 11]","tissue to tissue ratio at 24 h [3, 12]","tissue to tissue ratio at 24 h [3, 13]","tissue to tissue ratio at 24 h [3, 14]","tissue to tissue ratio at 24 h [3, 15]","tissue to tissue ratio at 24 h [3, 16]","tissue uptake at 24 h [3, 17] [%ID/g]","tissue uptake at 24 h [3, 18] [%ID/g]","tissue uptake at 24 h [3, 19] [%ID/g]","tissue uptake at 24 h [3, 20] [%ID/g]","tissue uptake at 24 h [3, 21] [%ID/g]","tissue uptake at 24 h [3, 22] [%ID/g]",further results
"CCCC[C@@H](C(=O)N[C@@H](CC(=O)O)C(=O)N[C@@H](Cc1cccc2ccccc12)C(N)=O)N(C)C(=O)[C@H](Cc1c[nH]c2ccccc12)NC(=O)CCOCCOCCOCCOCCNC(=O)CC[C@@H](NC(=O)CCOCCOCCOCCOCCOCCOCCOCCOCCNC(=O)CC[C@@H](NC(=O)[C@@H](CNC(=O)c1ccc([Si](F)(C(C)(C)C)C(C)(C)C)cc1)NC(=O)CN1CCN(CC(=O)O)CCN(CC(=O)O)CCN(CC(=O)O)CC1)C(=O)O)C(=O)O [[^nat/177Lu]Lu-DOTA-rhCCK-70, DOTA-D-Dap(p-SiFA)-D-γ-Glu-(PEG)7-D-γ-Glu-(PEG)3-Trp-(N-Me)Nle-Asp-1-Nal-NH2, metal not drawn]",-1.67,89.3,20.5 ± 8.5,143 ± 49,9.48 ± 8.05,55.4 ± 13.4,27.4 ± 7.7,1.44 ± 0.12,4.26 ± 1.7,33.4 ± 8.53,276 ± 189,55.2 ± 19.6,6.95 ± 2.17,1.97 ± 0.24,0.55 ± 0.46,0.1 ± 0.04,2.4 ± 1.5,0.23 ± 0.05,0.48 ± 0.13,8.4 ± 0.8,"tissue to tissue ratio at 24 h ([3]; tumor/kidney, read-out: tumor-to-kidney ratio): 1.4 ± 0.1; tissue to tissue ratio at 24 h ([3]; tumor/stomach, read-out: tumor-to-stomach ratio): 2 ± 0.2; tissue uptake at 24 h ([3]; bone, depending on 177Lu-batch, read-out: activity levels in the bone, range observed (correlating with free lutetium-177)): 0.5 to 4.3 %ID/g; tissue uptake at 24 h [3, 23]: 3.5 ± 1.7 %ID/g; tissue uptake at 24 h [3, 24]: 0.39 ± 0.12 %ID/g; tissue uptake at 24 h [3, 25]: 0.06 ± 0.03 %ID/g; tissue uptake at 24 h [3, 26]: 0.24 ± 0.08 %ID/g; tissue uptake at 24 h [3, 27]: 1.9 ± 0.6 %ID/g; tissue uptake at 24 h [3, 28]: 6.2 ± 0.9 %ID/g; tissue uptake at 24 h [3, 29]: 12 ± 0.8 %ID/g; decrease of activity levels in the tumor compared to [177Lu]Lu-DOTA-rhCCK-18 [4]: 2 fold; tumor-to-kidney ratio [4]: 1.45 ± 0.12; Biodistribution, Kidney ([4]; 100 pmol, n=4, mean ± SD): 8.37 ± 0.78 %ID/g; Biodistribution, Liver ([4]; 100 pmol, n=4, mean ± SD): 3.48 ± 1.66 %ID/g; Biodistribution, Spleen ([4]; 100 pmol, n=4, mean ± SD): 1.92 ± 0.60 %ID/g; Biodistribution, Stomach ([4]; 100 pmol, n=4, mean ± SD): 6.21 ± 0.85 %ID/g; reduction of kidney accumulation and retention compared to [177Lu]Lu-DOTA-rhCCK-18 [4]: 16 fold"
"CCCC[C@@H](C(=O)N[C@@H](CC(=O)O)C(=O)N[C@@H](Cc1cccc2ccccc12)C(N)=O)N(C)C(=O)[C@H](Cc1c[nH]c2ccccc12)NC(=O)CCOCCOCCOCCOCCNC(=O)CC[C@@H](NC(=O)CCOCCOCCOCCOCCOCCNC(=O)CC[C@@H](NC(=O)[C@@H](CNC(=O)C[N+](C)(C)Cc1ccc([Si](F)(C(C)(C)C)C(C)(C)C)cc1)NC(=O)CN1CCN(CC(=O)O)CCN(CC(=O)O)CCN(CC(=O)O)CC1)C(=O)O)C(=O)O [[^nat/177Lu]Lu-DOTA-rhCCK-91, DOTA-D-Dap(SiFAlin)-D-γ-Glu-(PEG)4-D-γ-Glu-(PEG)3-Trp-(N-Me)Nle-Asp-1-Nal-NH2, metal not drawn]",-1.66 ± 0.08,90.0,17.3 ± 1.9,185 ± 32,11.8 ± 0.72,25.3 ± 5.2,12.3 ± 5.1,1.14 ± 0.12,3.8 ± 0.37,29.3 ± 4.2,147 ± 65,8.98 ± 2.1,7.35 ± 0.75,1.95 ± 0.27,0.44 ± 0.09,0.04 ± 0.01,0.64 ± 0.12,0.31 ± 0.07,0.68 ± 0.16,6.6 ± 0.5,"tissue uptake at 24 h [3, 23]: 2 ± 0.1 %ID/g; tissue uptake at 24 h [3, 24]: 0.26 ± 0.05 %ID/g; tissue uptake at 24 h [3, 25]: 0.06 ± 0.01 %ID/g; tissue uptake at 24 h [3, 26]: 0.9 ± 0.32 %ID/g; tissue uptake at 24 h [3, 27]: 1 ± 0.3 %ID/g; tissue uptake at 24 h [3, 28]: 4 ± 1.2 %ID/g; tissue uptake at 24 h [3, 29]: 7.5 ± 1 %ID/g; decrease of activity levels in the tumor compared to [177Lu]Lu-DOTA-rhCCK-18 [4]: three; Biodistribution, Kidney ([4]; 100 pmol, n=4, mean ± SD): 6.58 ± 0.53 %ID/g; Biodistribution, Liver ([4]; 100 pmol, n=4, mean ± SD): 1.96 ± 0.08 %ID/g; Biodistribution, Spleen ([4]; 100 pmol, n=4, mean ± SD): 1.04 ± 0.26 %ID/g; Biodistribution, Stomach ([4]; 100 pmol, n=4, mean ± SD): 3.99 ± 1.16 %ID/g; Biodistribution, Tumor (AR42J xenograft) ([4]; 100 pmol, n=4, mean ± SD): 7.47 ± 1.01 %ID/g; reduction of kidney accumulation and retention compared to [177Lu]Lu-DOTA-rhCCK-18 [4]: 20 fold"

# Source: article PMC10907560, “Significant reduction of activity retention in the kidneys via optimized linker sequences in radiohybrid-based minigastrin analogs” (EJNMMI Research, 2024)
